# ChEMBL document CHEMBL3885881, “DrugMatrix”
# Organism: Rattus norvegicus
# Experiment: DrugMatrix - Regimen: Daily Repeat
# Assay type: toxicity, organism-based, Sprague-Dawley
# Parameters: regimen Daily Repeat, gender Male, age 6-8 weeks
# Settings: in vivo, iv, vehicle 100 % SALINE; for ABSOLUTE BASOPHIL / ABSOLUTE EOSINOPHIL / ABSOLUTE LYMPHOCYTE / ABSOLUTE MONOCYTE / ABSOLUTE SEGMENTED NEUTROPHIL / BASOPHIL / EOSINOPHIL / ERYTHROCYTE COUNT / HEMATOCRIT / HEMOGLOBIN / LEUKOCYTE COUNT / LYMPHOCYTE / MEAN CORPUSCULAR HEMOGLOBIN / MEAN CORPUSCULAR HEMOGLOBIN CONCENTRATION / MEAN CORPUSCULAR VOLUME / MONOCYTE / NEUTROPHIL / NUCLEATED RED BLOOD CELLS / PLATELET COUNT: tissue Blood; for ALANINE AMINOTRANSFERASE / ALBUMIN / ALKALINE PHOSPHATASE / ASPARTATE AMINOTRANSFERASE / BLOOD UREA NITROGEN / CARBON DIOXIDE / CHLORIDE / CHOLESTEROL / CREATINE PHOSPHOKINASE / CREATININE / GLUCOSE / LACTATE DEHYDROGENASE / LIPASE / PHOSPHORUS / POTASSIUM / SODIUM / TOTAL BILIRUBIN / TOTAL PROTEIN / URIC ACID: tissue Plasma
# [1] = 0 mg/kg, 72 h, dose level Control, time 3 day
# [2] = 0 mg/kg, 120 h, dose level Control, time 5 day
# [3] = 200 mg/kg, 72 h, dose level Low, time 3 day
smiles,measurement,setting,value
CC1(C)S[C@@H]2[C@H](NC(=O)[C@H](NC(=O)N3CCNC3=O)c3ccccc3)C(=O)N2[C@H]1C(=O)O [AZLOCILLIN],ABSOLUTE BASOPHIL,[1],0 CELLS/uL
same,ABSOLUTE EOSINOPHIL,[1],15.33 CELLS/uL
same,ABSOLUTE LYMPHOCYTE,[1],9513.5 CELLS/uL
same,ABSOLUTE MONOCYTE,[1],94.67 CELLS/uL
same,ABSOLUTE SEGMENTED NEUTROPHIL,[1],709.83 CELLS/uL
same,BASOPHIL,[1],0%
same,EOSINOPHIL,[1],0.17%
same,ERYTHROCYTE COUNT,[1],5.63 x10E6/uL
same,HEMATOCRIT,[1],34.63%
same,HEMOGLOBIN,[1],13.6 G/DL
same,LEUKOCYTE COUNT,[1],10.33 x10E3/uL
same,LYMPHOCYTE,[1],92%
same,MEAN CORPUSCULAR HEMOGLOBIN,[1],24.17 pg
same,MEAN CORPUSCULAR HEMOGLOBIN CONCENTRATION,[1],39.28 G/DL
same,MEAN CORPUSCULAR VOLUME,[1],61.57 fL
same,MONOCYTE,[1],0.83%
same,NEUTROPHIL,[1],7%
same,NUCLEATED RED BLOOD CELLS,[1],0 /100WBC
same,PLATELET COUNT,[1],903.17 x10E3/uL
same,ALANINE AMINOTRANSFERASE,[1],49.33 u/L
same,ALBUMIN,[1],4.27 G/DL
same,ALKALINE PHOSPHATASE,[1],400.83 u/L
same,ASPARTATE AMINOTRANSFERASE,[1],77.5 u/L
same,BLOOD UREA NITROGEN,[1],16.33 mg/dL
same,CARBON DIOXIDE,[1],29.33 mmol/L
same,CHLORIDE,[1],99.67 MEQ/L
same,CHOLESTEROL,[1],66.67 mg/dL
same,CREATINE PHOSPHOKINASE,[1],275.33 u/L
same,CREATININE,[1],0.18 mg/dL
same,GLUCOSE,[1],163.83 mg/dL
same,LACTATE DEHYDROGENASE,[1],125.33 u/L
same,LIPASE,[1],10 u/L
same,PHOSPHORUS,[1],12.12 mg/dL
same,POTASSIUM,[1],6.68 MEQ/L
same,SODIUM,[1],144.02 MEQ/L
same,TOTAL BILIRUBIN,[1],0.18 mg/dL
same,TOTAL PROTEIN,[1],5.87 G/DL
same,URIC ACID,[1],1.63 mg/dL
same,ABSOLUTE BASOPHIL,[2],0 CELLS/uL
same,ABSOLUTE EOSINOPHIL,[2],48.83 CELLS/uL
same,ABSOLUTE LYMPHOCYTE,[2],14562 CELLS/uL
same,ABSOLUTE MONOCYTE,[2],138.67 CELLS/uL
same,ABSOLUTE SEGMENTED NEUTROPHIL,[2],1733.83 CELLS/uL
same,BASOPHIL,[2],0%
same,EOSINOPHIL,[2],0.33%
same,ERYTHROCYTE COUNT,[2],5.89 x10E6/uL
same,HEMATOCRIT,[2],36.7%
same,HEMOGLOBIN,[2],14.42 G/DL
same,LEUKOCYTE COUNT,[2],16.48 x10E3/uL
same,LYMPHOCYTE,[2],88.83%
same,MEAN CORPUSCULAR HEMOGLOBIN,[2],24.52 pg
same,MEAN CORPUSCULAR HEMOGLOBIN CONCENTRATION,[2],39.3 G/DL
same,MEAN CORPUSCULAR VOLUME,[2],62.37 fL
same,MONOCYTE,[2],0.67%
same,NEUTROPHIL,[2],10.17%
same,NUCLEATED RED BLOOD CELLS,[2],0 /100WBC
same,PLATELET COUNT,[2],1076.5 x10E3/uL
same,ALANINE AMINOTRANSFERASE,[2],44.67 u/L
same,ALBUMIN,[2],4.23 G/DL
same,ALKALINE PHOSPHATASE,[2],357.33 u/L
same,ASPARTATE AMINOTRANSFERASE,[2],84.83 u/L
same,BLOOD UREA NITROGEN,[2],15.5 mg/dL
same,CARBON DIOXIDE,[2],27 mmol/L
same,CHLORIDE,[2],99.5 MEQ/L
same,CHOLESTEROL,[2],63.67 mg/dL
same,CREATINE PHOSPHOKINASE,[2],331.33 u/L
same,CREATININE,[2],0.18 mg/dL
same,GLUCOSE,[2],167.33 mg/dL
same,LACTATE DEHYDROGENASE,[2],320.17 u/L
same,LIPASE,[2],9.17 u/L
same,PHOSPHORUS,[2],12.05 mg/dL
same,POTASSIUM,[2],6.54 MEQ/L
same,SODIUM,[2],143.02 MEQ/L
same,TOTAL BILIRUBIN,[2],0.2 mg/dL
same,TOTAL PROTEIN,[2],6.23 G/DL
same,URIC ACID,[2],2.07 mg/dL
same,ABSOLUTE BASOPHIL,[3],0 CELLS/uL
same,ABSOLUTE EOSINOPHIL,[3],0 CELLS/uL
same,ABSOLUTE LYMPHOCYTE,[3],12492.33 CELLS/uL
same,ABSOLUTE MONOCYTE,[3],142.67 CELLS/uL
same,ABSOLUTE SEGMENTED NEUTROPHIL,[3],1631.67 CELLS/uL
same,BASOPHIL,[3],0%
same,EOSINOPHIL,[3],0%
same,ERYTHROCYTE COUNT,[3],5.71 x10E6/uL
same,HEMATOCRIT,[3],37.53%
same,HEMOGLOBIN,[3],14.67 G/DL
same,LEUKOCYTE COUNT,[3],14.27 x10E3/uL
same,LYMPHOCYTE,[3],87.67%
same,MEAN CORPUSCULAR HEMOGLOBIN,[3],25.73 pg
same,MEAN CORPUSCULAR HEMOGLOBIN CONCENTRATION,[3],39.1 G/DL
same,MEAN CORPUSCULAR VOLUME,[3],65.8 fL
same,MONOCYTE,[3],1%
same,NEUTROPHIL,[3],11.33%
same,NUCLEATED RED BLOOD CELLS,[3],0 /100WBC
same,PLATELET COUNT,[3],1015.67 x10E3/uL
same,ALANINE AMINOTRANSFERASE,[3],70.67 u/L
same,ALBUMIN,[3],4.47 G/DL
same,ALKALINE PHOSPHATASE,[3],482 u/L
same,ASPARTATE AMINOTRANSFERASE,[3],112.67 u/L
same,BLOOD UREA NITROGEN,[3],16.67 mg/dL
same,CARBON DIOXIDE,[3],27.33 mmol/L
same,CHLORIDE,[3],102.33 MEQ/L
same,CHOLESTEROL,[3],82.67 mg/dL
same,CREATINE PHOSPHOKINASE,[3],554 u/L
same,CREATININE,[3],0.22 mg/dL
same,GLUCOSE,[3],148 mg/dL
same,LACTATE DEHYDROGENASE,[3],194.33 u/L
same,LIPASE,[3],10 u/L
same,PHOSPHORUS,[3],11.97 mg/dL
same,POTASSIUM,[3],7.02 MEQ/L
same,SODIUM,[3],145.3 MEQ/L
same,TOTAL BILIRUBIN,[3],0.23 mg/dL
same,TOTAL PROTEIN,[3],5.97 G/DL
same,URIC ACID,[3],1.67 mg/dL
